{"source": "ChEMBL document CHEMBL3286369", "about": "“β-Secretase (BACE1)-inhibiting C-methylrotenoids from Abronia nana suspension cultures” (Bioorg Med Chem Lett, 2014)", "key": {"Beta-secretase 1 [1]": {"biological_target": "T1, Beta-secretase 1 (Homo sapiens, UniProt P56817)", "T1 sequence (P56817 whole entry)": "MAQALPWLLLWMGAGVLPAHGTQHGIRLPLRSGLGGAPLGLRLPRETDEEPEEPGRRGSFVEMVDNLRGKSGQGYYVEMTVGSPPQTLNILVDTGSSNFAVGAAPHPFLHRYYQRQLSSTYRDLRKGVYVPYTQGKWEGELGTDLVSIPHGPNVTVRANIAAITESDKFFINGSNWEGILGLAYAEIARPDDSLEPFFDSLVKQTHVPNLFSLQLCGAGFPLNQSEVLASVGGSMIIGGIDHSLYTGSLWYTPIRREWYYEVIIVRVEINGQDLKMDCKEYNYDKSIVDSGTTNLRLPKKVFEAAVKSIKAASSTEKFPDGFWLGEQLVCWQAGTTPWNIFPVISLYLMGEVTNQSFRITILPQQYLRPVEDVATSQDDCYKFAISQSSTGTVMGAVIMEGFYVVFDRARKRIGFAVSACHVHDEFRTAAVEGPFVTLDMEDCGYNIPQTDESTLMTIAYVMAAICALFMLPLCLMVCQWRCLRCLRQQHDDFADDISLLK", "test": "Inhibition of BACE1 (unknown origin)"}, "N2a": {"system": "N2a", "test": "Cytotoxicity against mouse N2A cells transfected with human APP Swedish mutant assessed as cell viability at 1 to 50 uM", "type": "cell-based"}, "[2]": {"biological_target": "Beta-secretase 1 (Mus musculus) (UniProt P56818)", "sequence (P56818 whole entry)": "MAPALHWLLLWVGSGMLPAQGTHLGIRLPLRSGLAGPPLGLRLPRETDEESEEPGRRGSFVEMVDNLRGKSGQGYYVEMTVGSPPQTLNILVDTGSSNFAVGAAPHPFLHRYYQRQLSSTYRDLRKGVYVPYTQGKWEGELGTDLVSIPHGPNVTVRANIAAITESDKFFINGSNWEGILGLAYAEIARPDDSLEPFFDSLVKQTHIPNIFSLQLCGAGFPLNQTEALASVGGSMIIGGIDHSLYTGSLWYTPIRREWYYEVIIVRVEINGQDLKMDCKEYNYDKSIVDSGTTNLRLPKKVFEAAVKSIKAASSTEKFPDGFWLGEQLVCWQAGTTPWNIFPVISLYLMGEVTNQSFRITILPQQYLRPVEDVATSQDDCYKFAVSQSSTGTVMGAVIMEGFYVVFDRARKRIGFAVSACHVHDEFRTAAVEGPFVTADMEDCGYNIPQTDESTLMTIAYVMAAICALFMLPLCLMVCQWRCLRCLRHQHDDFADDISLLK", "test": "Inhibition of BACE1 in mouse N2A cells transfected with human APP Swedish mutant assessed as amyloid beta (1-42) production at 50 uM", "type": "cell-based", "set-up": "scale not given: the % may be the effect or the level left"}, "Homo sapiens [3]": {"species": "Homo sapiens", "test": "Inhibition of chymotrypsin (unknown origin) up to 1 mM"}, "Homo sapiens [4]": {"species": "Homo sapiens", "test": "Inhibition of elastase (unknown origin) up to 1 mM"}, "Trypsin (Homo sapiens)": {"biological_target": "Trypsin (Homo sapiens) (UniProt P07477+P07478+P35030)", "test": "Inhibition of trypsin (unknown origin) up to 1 mM", "type": "protein assay"}, "Beta-secretase 1 [5]": {"biological_target": "T1, Beta-secretase 1", "test": "Non-competitive inhibition of BACE1 (unknown origin) by Dixon plot analysis"}, "Beta-secretase 1 [6]": {"biological_target": "T1, Beta-secretase 1", "test": "Inhibition of BACE1 (unknown origin) expressed in CHO cells coexpressing human APP gene assessed as inhibition of beta-amyloid synthesis", "type": "cell-based"}}, "note": "Calls of active or inactive are those of the source. The calls are words filed in the database; no cut-off is given here.", "data": [{"smiles": "O=c1oc2c(O)c(O)cc3c(=O)oc4c(O)c(O)cc1c4c23", "note": "[ELLAGIC ACID]", "values": [{"measurement": "IC50", "setting": "Beta-secretase 1 [1]", "value": 3.9, "unit": "µM"}]}, {"smiles": "COc1cc2oc3c(c(=O)c2c(O)c1C)-c1ccc(O)cc1OC3O", "note": "(centres undefined)", "values": [{"measurement": "Activity", "setting": "N2a", "value": "Non-toxic"}, {"measurement": "Activity", "setting": "[2]", "value": 56, "unit": "%"}, {"measurement": "inhibition", "setting": "Homo sapiens [3]", "value": "inactive"}, {"measurement": "inhibition", "setting": "Homo sapiens [4]", "value": "inactive"}, {"measurement": "inhibition", "setting": "Trypsin (Homo sapiens)", "value": "inactive"}, {"measurement": "Ki", "setting": "Beta-secretase 1 [5]", "value": 4.28, "unit": "µM"}, {"measurement": "IC50", "setting": "Beta-secretase 1 [1]", "value": 4.24, "unit": "µM"}, {"measurement": "inhibition", "setting": "Beta-secretase 1 [1]", "value": "Dose-dependent effect"}]}, {"smiles": "COC1Oc2cc(O)ccc2-c2c1oc1cc(O)c(C)c(O)c1c2=O", "note": "(centres undefined) [BOERAVINONE D]", "values": [{"measurement": "inhibition", "setting": "Homo sapiens [3]", "value": "inactive"}, {"measurement": "inhibition", "setting": "Homo sapiens [4]", "value": "inactive"}, {"measurement": "inhibition", "setting": "Trypsin (Homo sapiens)", "value": "inactive"}, {"measurement": "Ki", "setting": "Beta-secretase 1 [5]", "value": 5.01, "unit": "µM"}, {"measurement": "IC50", "setting": "Beta-secretase 1 [1]", "value": 4.77, "unit": "µM"}, {"measurement": "inhibition", "setting": "Beta-secretase 1 [1]", "value": "Dose-dependent effect"}]}, {"smiles": "COc1cc2c(c(O)c1C)C(=O)[C@@]1(O)c3cccc(OC)c3OC[C@@H]1O2", "values": [{"measurement": "IC50", "setting": "Beta-secretase 1 [1]", "value": 62.2, "unit": "µM"}, {"measurement": "inhibition", "setting": "Beta-secretase 1 [1]", "value": "Dose-dependent effect"}]}, {"smiles": "COc1cc2oc3c(c(=O)c2c(O)c1C)-c1ccccc1OC3OC", "note": "(centres undefined)", "values": [{"measurement": "IC50", "setting": "Beta-secretase 1 [1]", "value": "> 3000", "unit": "µM"}]}, {"smiles": "O=C1O[C@@H]2[C@@H](OC(=O)c3cc(O)c(O)c(O)c3-c3c1cc(O)c(O)c3O)[C@H](O)O[C@@H]1COC(=O)c3cc(O)c(O)c(O)c3-c3c(O)c(O)c4oc(=O)c5c(c(O)c(O)c6oc(=O)c3c4c65)-c3c(cc(O)c(O)c3O)C(=O)O[C@@H]21", "note": "[PUNICALAGIN]", "values": [{"measurement": "IC50", "setting": "Beta-secretase 1 [1]", "value": 0.41, "unit": "µM"}]}, {"smiles": "O=C(O[C@@H]1O[C@@H]2COC(=O)c3cc(O)c(O)c(O)c3-c3c(cc(O)c(O)c3O)C(=O)O[C@H]2[C@H](OC(=O)c2cc(O)c(O)c(O)c2)[C@H]1OC(=O)c1cc(O)c(O)c(O)c1)c1cc(O)c(O)c(O)c1", "note": "[EUGENIIN]", "values": [{"measurement": "IC50", "setting": "Beta-secretase 1 [1]", "value": 3.1, "unit": "µM"}, {"measurement": "Ki", "setting": "Beta-secretase 1 [1]", "value": 6.84, "unit": "µM"}]}, {"smiles": "C=C[C@H](c1ccccc1O)c1cc(O)c(OC)cc1OC", "note": "[LATIFOLIN]", "values": [{"measurement": "IC50", "setting": "Beta-secretase 1 [6]", "value": 180, "unit": "µM"}]}, {"smiles": "O=C(OC[C@H]1O[C@@H](OC(=O)c2cc(O)c(O)c(O)c2)[C@H](OC(=O)c2cc(O)c(O)c(O)c2)[C@@H](OC(=O)c2cc(O)c(O)c(O)c2)[C@@H]1OC(=O)c1cc(O)c(O)c(O)c1)c1cc(O)c(O)c(O)c1", "note": "[PENTAGALLOYL GLUCOSE]", "values": [{"measurement": "IC50", "setting": "Beta-secretase 1 [1]", "value": 3.76, "unit": "µM"}, {"measurement": "Ki", "setting": "Beta-secretase 1 [1]", "value": 5.13, "unit": "µM"}]}]}
